Measured values taken from the CheMixHub viscosity set.
± gives the uncertainty stated by the source.

Test: xn = mol fraction of the nth substance listed

CCCOCCO + OCCOCCOCCOCCO
101 kPa
Settings	viscosity [mPa·s]
293.15 K, x1 = 0.0542	48.17 ± 0.47
293.15 K, x1 = 0.1014	43.86 ± 0.42
293.15 K, x1 = 0.201	35.31 ± 0.35
293.15 K, x1 = 0.3003	27.79 ± 0.27
293.15 K, x1 = 0.3986	21.51 ± 0.2
293.15 K, x1 = 0.4476	18.81 ± 0.17
293.15 K, x1 = 0.5026	16.04 ± 0.14
293.15 K, x1 = 0.5513	13.99 ± 0.12
293.15 K, x1 = 0.6093	11.77 ± 0.1
293.15 K, x1 = 0.6955	9.005 ± 0.079
293.15 K, x1 = 0.8069	6.17 ± 0.058
293.15 K, x1 = 0.8986	4.294 ± 0.043
293.15 K, x1 = 0.9299	3.73 ± 0.037
298.15 K, x1 = 0.0471	40.86 ± 0.43
298.15 K, x1 = 0.1215	35.33 ± 0.38
298.15 K, x1 = 0.2008	29.71 ± 0.31
298.15 K, x1 = 0.2987	23.76 ± 0.24
298.15 K, x1 = 0.4022	18.52 ± 0.18
298.15 K, x1 = 0.4601	16.06 ± 0.15
298.15 K, x1 = 0.5018	14.48 ± 0.14
298.15 K, x1 = 0.5507	12.73 ± 0.12
298.15 K, x1 = 0.5961	11.26 ± 0.1
298.15 K, x1 = 0.6975	8.355 ± 0.076
298.15 K, x1 = 0.7954	5.941 ± 0.056
298.15 K, x1 = 0.9023	3.732 ± 0.037
298.15 K, x1 = 0.947	2.996 ± 0.03
303.15 K, x1 = 0.0564	32.24 ± 0.4
303.15 K, x1 = 0.1139	28.91 ± 0.34
303.15 K, x1 = 0.2071	23.96 ± 0.27
303.15 K, x1 = 0.304	19.47 ± 0.21
303.15 K, x1 = 0.3911	15.98 ± 0.17
303.15 K, x1 = 0.4512	13.87 ± 0.14
303.15 K, x1 = 0.5003	12.29 ± 0.13
303.15 K, x1 = 0.5411	11.08 ± 0.12
303.15 K, x1 = 0.5977	9.543 ± 0.099
303.15 K, x1 = 0.7007	7.098 ± 0.072
303.15 K, x1 = 0.794	5.232 ± 0.051
303.15 K, x1 = 0.8948	3.54 ± 0.033
303.15 K, x1 = 0.9402	2.883 ± 0.026

N[C@@H](Cc1ccc(O)cc1)C(=O)O + O
303 K, 100 kPa
Settings	viscosity [mPa·s]
x1 = 0.00933	0.8931 ± 0.019
x1 = 0.00952	0.911 ± 0.019
x1 = 0.00967	0.9501 ± 0.02
x1 = 0.00975	0.9616 ± 0.021
x1 = 0.0098	0.9874 ± 0.021
x1 = 0.00983	1 ± 0.022

CCC(=O)OC + CCCCCCC
viscosity [mPa·s], 101.3 kPa
Settings	308.15 K	318.15 K
x1 = 0.0447	0.354 ± 0.004	0.322 ± 0.003
x1 = 0.1083	0.355 ± 0.004	0.326 ± 0.003
x1 = 0.1932	0.358 ± 0.004	0.332 ± 0.003
x1 = 0.3018	0.362 ± 0.004	0.34 ± 0.003
x1 = 0.4146	0.369 ± 0.004	0.349 ± 0.004
x1 = 0.5227	0.377 ± 0.004	0.359 ± 0.004
x1 = 0.5693	0.381 ± 0.004	0.363 ± 0.004
x1 = 0.7002	0.395 ± 0.004	0.377 ± 0.004
x1 = 0.7986	0.407 ± 0.004	0.389 ± 0.004
x1 = 0.9016	0.421 ± 0.004	0.402 ± 0.004
x1 = 0.9509	0.429 ± 0.004	0.409 ± 0.004

CCCOCCO + CN1CCCC1=O
298.15 K, 101 kPa
Settings	viscosity [mPa·s]
x1 = 0.0057	1.693 ± 0.02
x1 = 0.0142	1.702 ± 0.02
x1 = 0.0273	1.719 ± 0.021
x1 = 0.0609	1.756 ± 0.021
x1 = 0.1004	1.803 ± 0.022
x1 = 0.1386	1.847 ± 0.022
x1 = 0.1786	1.891 ± 0.023
x1 = 0.2186	1.94 ± 0.024
x1 = 0.2578	1.996 ± 0.025
x1 = 0.2966	2.038 ± 0.025
x1 = 0.3343	2.078 ± 0.026
x1 = 0.3852	2.132 ± 0.027
x1 = 0.4436	2.186 ± 0.028
x1 = 0.5011	2.244 ± 0.029
x1 = 0.5422	2.28 ± 0.03
x1 = 0.6093	2.311 ± 0.031
x1 = 0.6638	2.343 ± 0.032
x1 = 0.7673	2.355 ± 0.033
x1 = 0.8387	2.365 ± 0.034
x1 = 0.8702	2.362 ± 0.034
x1 = 0.9445	2.359 ± 0.035
x1 = 0.976	2.354 ± 0.035

Nc1cccc2ccccc12 + Oc1ccccc1
viscosity [mPa·s], 101.33 kPa
Settings	x1 = 0.4159	x1 = 0.4605	x1 = 0.7133	x1 = 0.8902
303.15 K	24.9 ± 0.25	26.9 ± 0.27	32.4 ± 0.32	–
323.15 K	8.52 ± 0.085	9 ± 0.09	10.9 ± 0.11	11.3 ± 0.11
